Patent US11530200B2, “Compounds” (Inflazome Limited, priority 2018, dated 2022)
Counter-ions that a name gives are not always drawn.

Target: NLRP3 (Homo sapiens (Human), UniProt Q96P20)
Assay: THP-1 cells pyroptosis assay (LPS priming, nigericin, resazurin readout)
Assay type: cell-based
Details: 1.0 μg/ml LPS, nigericin 5 μM, NLRP3 inhibitory activity
Description: THP-1 cells (ATCC #TIB-202) were grown in RPMI containing L-glutamine (Gibco #11835) supplemented with 1 mM sodium pyruvate (Sigma #S8636) and penicillin (100 units/ml)/streptomycin (0.1 mg/ml) (Sigma #P4333) in 10% Fetal Bovine Serum (FBS) (Sigma #F0804). The cells were routinely passaged and grown to confluency (10^6 cells/ml). On the day of the experiment, THP-1 cells were harvested and resuspended into RPMI medium (without FBS). The cells were then counted and viability (>90%) checked by Trypan blue (Sigma #T8154). Appropriate dilutions were made to give a concentration of 625,000 cells/ml. To this diluted cell solution was added LPS (Sigma #L4524) to give a 1 μg/ml Final Assay Concentration (FAC). 40 μl of the final preparation was aliquoted into each well of a 96-well plate. The plate thus prepared was used for compound screening. The following method step-by-step assay was followed for compound screening. • 1. Seed THP-1 cells (25,000 cells/well) containing 1.0 μg/ml LPS in 40 μl of RPMI medium (without FBS) in 96-well, black walled, clear bottom cell culture plates coated with poly-D-lysine (VWR #734-0317) • 2. Add […] compound (8 points half-log dilution, with […] top dose) or vehicle (DMSO 0.1% FAC) to the appropriate wells • 3. Incubate for 3 hrs at 37° C., 5% CO2 • 4. Add 5 μl nigericin (Sigma #N7143) (FAC 5 μM) to all wells • 5. Incubate for 1 hr at 37° C., 5% CO2 • 6. At the end of the incubation period, spin plates at 300×g for 3 mins and remove supernatant • 7. Then add 50 μl of resazurin (Sigma #R7017) (FAC 100 μM resazurin in RPMI medium without FBS) and incubate plates for a further 1-2 hrs at 37° C. and 5% CO2 • 8. Plates were read in an Envision reader at Ex 560 nm and Em 590 nm • 9. IC50 data is fitted to a non-linear regression equation (log inhibitor vs response-variable slope 4-parameters) The results of the pyroptosis assay are summarised in Table 1 below as THP IC50.

Sequence of NLRP3 (Q96P20 whole entry): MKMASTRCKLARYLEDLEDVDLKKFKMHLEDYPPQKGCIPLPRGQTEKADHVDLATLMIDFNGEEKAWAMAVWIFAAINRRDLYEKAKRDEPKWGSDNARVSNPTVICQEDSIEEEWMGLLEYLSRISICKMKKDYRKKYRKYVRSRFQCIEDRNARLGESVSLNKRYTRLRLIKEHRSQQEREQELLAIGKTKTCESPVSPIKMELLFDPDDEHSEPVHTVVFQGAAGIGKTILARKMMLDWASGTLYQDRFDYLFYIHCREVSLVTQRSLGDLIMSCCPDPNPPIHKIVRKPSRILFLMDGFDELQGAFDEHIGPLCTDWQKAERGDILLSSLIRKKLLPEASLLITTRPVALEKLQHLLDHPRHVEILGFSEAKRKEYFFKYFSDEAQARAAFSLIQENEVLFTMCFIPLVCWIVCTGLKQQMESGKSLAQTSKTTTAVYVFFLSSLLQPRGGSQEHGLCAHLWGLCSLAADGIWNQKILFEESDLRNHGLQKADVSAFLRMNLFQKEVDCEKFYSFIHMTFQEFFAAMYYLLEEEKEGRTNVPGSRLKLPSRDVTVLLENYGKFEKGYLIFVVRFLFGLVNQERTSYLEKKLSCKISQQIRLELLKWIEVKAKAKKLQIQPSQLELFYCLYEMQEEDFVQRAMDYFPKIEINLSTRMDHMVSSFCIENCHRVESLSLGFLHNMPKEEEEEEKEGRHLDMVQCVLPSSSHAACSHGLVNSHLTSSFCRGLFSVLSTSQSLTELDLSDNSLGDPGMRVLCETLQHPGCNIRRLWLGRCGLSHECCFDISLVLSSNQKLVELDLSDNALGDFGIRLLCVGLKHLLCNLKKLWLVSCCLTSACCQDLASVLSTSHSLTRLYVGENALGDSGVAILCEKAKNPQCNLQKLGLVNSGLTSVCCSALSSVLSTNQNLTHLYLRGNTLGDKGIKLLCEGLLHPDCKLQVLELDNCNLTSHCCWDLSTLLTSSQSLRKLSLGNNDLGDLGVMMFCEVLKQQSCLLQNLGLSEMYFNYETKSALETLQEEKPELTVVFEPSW

| SMILES | IC50 [µM] |
| --- | --- |
| N#Cc1cc(-c2ccc3c(c2CC(=O)NS(=O)(=O)c2ccn(C4CC4)n2)CCC3)ccn1 [Example 1, 2-(5-(2-Cyanopyridin-4-yl)-2,3-dihydro-1H-inden-4-yl)-N-((1-cyclopropyl-1H-pyrazol-3-yl)sulfonyl)acetamide] | 1 to 5 |
| CC(C)c1cc(F)cc(-c2ccncc2)c1CC(=O)NS(=O)(=O)c1ccn(C2CC2)n1 [Example 2, N-((1-Cyclopropyl-1H-pyrazol-3-yl)sulfonyl)-2-(4-fluoro-2-isopropyl-6-(pyridin-4-yl)phenyl)acetamide, potassium salt] | ≤ 1 |
| N#Cc1cc(-c2ccc3c(c2CC(=O)NS(=O)(=O)c2cnn(C4CC4)n2)CCC3)ccn1 [Example 8, 2-(5-(2-Cyanopyridin-4-yl)-2,3-dihydro-1H-inden-4-yl)-N-((2-cyclopropyl-2H-1,2,3-triazol-4-yl)sulfonyl)acetamide] | 1 to 5 |
| COC1(c2cc(S(=O)(=O)NC(=O)Cc3c4c(cc5c3CCC5)CCC4)nn2C(C)C)COC1 [Example 12, 2-(1,2,3,5,6,7-Hexahydro-s-indacen-4-yl)-N-((1-isopropyl-5-(3-methoxyoxetan-3-yl)-1H-pyrazol-3-yl)sulfonyl)acetamide] | 1 to 5 |
| COC1(c2cc(S(=O)(=O)NC(=O)Cc3c(-c4ccnc(C#N)c4)ccc4c3CCC4)nn2C(C)C)COC1 [Example 13, 2-(5-(2-Cyanopyridin-4-yl)-2,3-dihydro-1H-inden-4-yl)-N-((1-isopropyl-5-(3-methoxyoxetan-3-yl)-1H-pyrazol-3-yl)sulfonyl)acetamide, potassium salt] | 5 to 10 |
| COC1(c2cc(S(=O)(=O)NC(=O)Cc3c4c(cc5c3CCC5)CCC4)nn2C2CC2)COC1 [Example 14, N-((1-Cyclopropyl-5-(3-methoxyoxetan-3-yl)-1H-pyrazol-3-yl)sulfonyl)-2-(1,2,3,5,6,7-hexahydro-s-indacen-4-yl)acetamide] | 1 to 5 |
| CC(c1cc(S(=O)(=O)NC(=O)Cc2c3c(cc4c2CCC4)CCC3)nn1C1CC1)N(C)C (stereo not drawn) [Example 15, N-((1-Cyclopropyl-5-(1-(dimethylamino)ethyl)-1H-pyrazol-3-yl)sulfonyl)-2-(1,2,3,5,6,7-hexahydro-s-indacen-4-yl)acetamide] | 1 to 5 |
| CC(C)c1cc(F)cc(C(C)C)c1CC(=O)NS(=O)(=O)c1cc(CN(C)C)n(C2CC2)n1 [Example 16, N-((1-Cyclopropyl-5-((dimethylamino)methyl)-1H-pyrazol-3-yl)sulfonyl)-2-(4-fluoro-2,6-diisopropylphenyl)acetamide] | 1 to 5 |
| O=C(Cc1c2c(cc3c1CCC3)CCC2)NS(=O)(=O)c1ccn(C2CC2)n1 [Example 19, N-((1-Cyclopropyl-1H-pyrazol-3-yl)sulfonyl)-2-(1,2,3,5,6,7-hexahydro-s-indacen-4-yl)acetamide] | 5 to 10 |
| COc1cc(-c2ccc3c(c2CC(=O)NS(=O)(=O)c2cnn(C4CC4)c2)CCC3)ccn1 [Example 23, N-((1-Cyclopropyl-H-pyrazol-4-yl)sulfonyl)-2-(5-(2-methoxypyridin-4-yl)-2,3-dihydro-1H-inden-4-yl)acetamide] | 1 to 5 |
| CC(C)c1cc(F)cc(C(C)C)c1CC(=O)NS(=O)(=O)c1ncn(C2CC2)n1 [Example 25, N-((1-Cyclopropyl-H-1,2,4-triazol-3-yl)sulfonyl)-2-(4-fluoro-2,6-diisopropylphenyl)acetamide] | 5 to 10 |
| CC(C)c1cc(F)cc(C(C)C)c1CC(=O)NS(=O)(=O)c1cnn(C2CC2)n1 [Example 26, N-((2-Cyclopropyl-2H-1,2,3-triazol-4-yl)sulfonyl)-2-(4-fluoro-2,6-diisopropylphenyl)acetamide] | 1 to 5 |
| COC1(c2cc(S(=O)(=O)NC(=O)Cc3c(C(C)C)cc(F)cc3C(C)C)nn2C(C)C)COC1 [Example 29, 2-(4-Fluoro-2,6-diisopropylphenyl)-N-((1-isopropyl-5-(3-methoxyoxetan-3-yl)-1H-pyrazol-3-yl)sulfonyl)acetamide] | 1 to 5 |
| N#Cc1cc(-c2ccc3c(c2CC(=O)NS(=O)(=O)c2cnn(C4CC4)c2)CCC3)ccn1 [Example 30, 2-(5-(2-Cyanopyridin-4-yl)-2,3-dihydro-H-inden-4-yl)-N-((1-cyclopropyl-1H-pyrazol-4-yl)sulfonyl)acetamide] | 5 to 10 |

Other lines, results leading:

| IC50 [µM] | SMILES |
| --- | --- |
| 1 to 5 | COc1cc(-c2cc(F)cc(C(C)C)c2CC(=O)NS(=O)(=O)c2cn(C3CC3)cn2)ccn1 [Example 3, N-((1-Cyclopropyl-1H-imidazol-4-yl)sulfonyl)-2-(4-fluoro-2-isopropyl-6-(2-methoxypyridin-4-yl)phenyl)acetamide] |
| 1 to 5 | COc1cc(-c2cc(F)cc(C(C)C)c2CC(=O)NS(=O)(=O)c2ccn(C3CC3)n2)ccn1 [Example 4, N-((1-Cyclopropyl-1H-pyrazol-3-yl)sulfonyl)-2-(4-fluoro-2-isopropyl-6-(2-methoxypyridin-4-yl)phenyl)acetamide] |
| 5 to 10 | COc1cc(-c2ccc3c(c2CC(=O)NS(=O)(=O)c2cnn(C4CC4)n2)CCC3)ccn1 [Example 5, N-((2-Cyclopropyl-2H-1,2,3-triazol-4-yl)sulfonyl)-2-(5-(2-methoxypyridin-4-yl)-2,3-dihydro-1H-inden-4-yl)acetamide] |
| 5 to 10 | CC(C)c1cc(F)cc(-c2cccnc2)c1CC(=O)NS(=O)(=O)c1cn(C2CC2)cn1 [Example 6, N-((1-Cyclopropyl-1H-imidazol-4-yl)sulfonyl)-2-(4-fluoro-2-isopropyl-6-(pyridin-3-yl)phenyl)acetamide] |
| 5 to 10 | CC(C)c1cc(F)cc(-c2ccnc(C#N)c2)c1CC(=O)NS(=O)(=O)c1cnn(C2CC2)n1 [Example 7, 2-(2-(2-Cyanopyridin-4-yl)-4-fluoro-6-isopropylphenyl)-N-((2-cyclopropyl-2H-1,2,3-triazol-4-yl)sulfonyl)acetamide] |
| 5 to 10 | CC(C)c1cc(F)cc(-c2ccnc(C#N)c2)c1CC(=O)NS(=O)(=O)c1cnn(C2CC2)c1 [Example 9, 2-(2-(2-Cyanopyridin-4-yl)-4-fluoro-6-isopropylphenyl)-N-((1-cyclopropyl-1H-pyrazol-4-yl)sulfonyl)acetamide] |
| 5 to 10 | COc1cc(-c2cc(F)cc(C(C)C)c2C(O)C(=O)NS(=O)(=O)c2cnn(C3CC3)c2)ccn1 (stereo not drawn) [Example 10, N-((1-Cyclopropyl-1H-pyrazol-4-yl)sulfonyl)-2-(4-fluoro-2-isopropyl-6-(2-methoxypyridin-4-yl)phenyl)-2-hydroxyacetamide] |
| 1 to 5 | COc1cc(-c2ccc3c(c2CC(=O)NS(=O)(=O)c2ccn(C4CC4)n2)CCC3)ccn1 [Example 17, N-((1-Cyclopropyl-1H-pyrazol-3-yl)sulfonyl)-2-(5-(2-methoxypyridin-4-yl)-2,3-dihydro-1H-inden-4-yl)acetamide] |
| 1 to 5 | COc1cc(-c2cc(F)cc(C(C)C)c2CC(=O)NS(=O)(=O)c2cnn(C3CC3)n2)ccn1 [Example 20, N-((2-Cyclopropyl-2H-1,2,3-triazol-4-yl)sulfonyl)-2-(4-fluoro-2-isopropyl-6-(2-methoxypyridin-4-yl)phenyl)acetamide] |
| 1 to 5 | CC(C)c1cc(F)cc(-c2cccnc2)c1CC(=O)NS(=O)(=O)c1ncn(C2CC2)n1 [Example 22, N-((1-Cyclopropyl-1H-1,2,4-triazol-3-yl)sulfonyl)-2-(4-fluoro-2-isopropyl-6-(pyridin-3-yl)phenyl)acetamide] |
| 1 to 5 | CC(C)c1cc(F)cc(-c2cccnc2)c1CC(=O)NS(=O)(=O)c1cnn(C2CC2)n1 [Example 27, N-((2-Cyclopropyl-2H-1,2,3-triazol-4-yl)sulfonyl)-2-(4-fluoro-2-isopropyl-6-(pyridin-3-yl)phenyl)acetamide] |
| 1 to 5 | CC(C)c1cc(F)cc(C(C)C)c1CC(=O)NS(=O)(=O)c1cn(C2CC2)cn1 [Example 28, N-((1-Cyclopropyl-1H-imidazol-4-yl)sulfonyl)-2-(4-fluoro-2,6-diisopropylphenyl)acetamide] |
| 5 to 10 | CC(C)c1cc(F)cc(-c2ccnc(C#N)c2)c1CC(=O)NS(=O)(=O)c1cn(C2CC2)cn1 [Example 31, 2-(2-(2-Cyanopyridin-4-yl)-4-fluoro-6-isopropylphenyl)-N-((1-cyclopropyl-1H-imidazol-4-yl)sulfonyl)acetamide] |
